Assay results reported in PubChem BioAssay (NCI).
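The compound was tested at five concentrations on cells cultured in 96-well plates, with a 48-hour exposure period. The concentration for full growth arrest is given as TGI.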

Tests used:
Assay in all cases: inhibition of tumour cell growth, NCI panel, 48 h
[1] = test system: MDA-MB-231 breast
[2] = test system: SK-OV-3 ovarian
[3] = test system: SF-539 CNS
[4] = test system: SK-MEL-28 melanoma
[5] = test system: SK-MEL-2 melanoma
[6] = test system: SNB-19 CNS
[7] = test system: NCI-H522 lung
[8] = test system: MALME-3M melanoma
[9] = test system: K-562 leukemia
[10] = test system: HL-60(TB) leukemia
[11] = test system: NCI-H226 lung
[12] = test system: A549 NSCLC
[13] = test system: HCT-116 colon
[14] = test system: M14 melanoma
[15] = test system: OVCAR-5 ovarian
[16] = test system: SK-MEL-5 melanoma
[17] = test system: HCT-15 colon
[18] = test system: SNB-75 CNS
[19] = test system: UACC-62 melanoma

Compound | TGI [1] | TGI [2] | TGI [3] | TGI [4] | TGI [5] | TGI [6] | TGI [7] | TGI [8] | TGI [9] | TGI [10] | TGI [11] | TGI [12] | TGI [13] | TGI [14] | TGI [15] | TGI [16] | TGI [17] | TGI [18] | TGI [19]
Cc1c2c(OCCCCN3CCN(c4ncccn4)CC3)nn(C)c(=O)c2c(C)n1-c1ccccc1 | 30.7 µM | 35.4 µM | 32.6 µM | 34.5 µM | 34.6 µM | 33.3 µM | 38.2 µM | 35.7 µM | > 100 µM | 47.2 µM | 40.8 µM | 40.9 µM | 31.7 µM | 35.9 µM | 37.6 µM | 26.8 µM | 32.7 µM | 39.4 µM | 31 µM
CCc1c(C)c(C#N)c(=S)n(C2OC(CO)C(O)C(O)C2O)c1C (stereo not drawn) | > 100 µM | > 100 µM | > 100 µM | > 100 µM | > 100 µM | > 100 µM | > 100 µM | > 100 µM | > 100 µM | > 100 µM | > 100 µM | > 100 µM | > 100 µM | > 100 µM | > 100 µM | > 100 µM | > 100 µM | > 100 µM | > 100 µM
O=c1oc2ccc(Cl)cc2cc1-c1cn2cc(Cl)ccc2n1 | > 100 µM | > 100 µM | > 100 µM | > 100 µM | > 100 µM | > 27.1 µM | 11.2 µM | 92.5 µM | > 100 µM | > 100 µM | > 100 µM | > 87.8 µM | > 100 µM | > 100 µM | > 100 µM | > 100 µM | > 100 µM | > 100 µM | 15 µM
CCOC(=O)C(/C=N\C(=S)Nc1ccc(OCC)cc1)=C(/O)c1ccccc1 | > 100 µM | > 100 µM | > 100 µM | > 100 µM | > 100 µM | > 100 µM | > 100 µM | > 100 µM | > 100 µM | > 100 µM | > 100 µM | > 100 µM | > 100 µM | > 100 µM | > 100 µM | > 100 µM | > 100 µM | > 100 µM | > 100 µM
CC1(C)Oc2ccc(NC(=O)CCC(N)C(=O)O)cc2O1 (stereo not drawn) | > 100 µM | > 100 µM | > 100 µM | > 100 µM | > 100 µM | > 100 µM | > 100 µM | > 100 µM | > 100 µM | > 100 µM | > 100 µM | > 100 µM | > 100 µM | > 100 µM | > 100 µM | > 100 µM | > 100 µM | > 100 µM | > 100 µM
Cc1c(NC2(C)C(=O)N(/N=C/c3ccccc3)N=C2c2ccccc2)n[nH]c1-c1ccccc1 (stereo not drawn) | > 100 µM | > 100 µM | > 100 µM | > 100 µM | > 100 µM | > 100 µM | > 100 µM | > 100 µM | > 100 µM | > 100 µM | > 100 µM | > 100 µM | > 100 µM | > 100 µM | > 100 µM | > 100 µM | > 100 µM | > 100 µM | > 100 µM
COc1ccc(OC)c2c1C1CCC(=O)N1CN2C(C)=O (stereo not drawn) | > 100 µM | > 100 µM | > 100 µM | > 100 µM | > 100 µM | > 100 µM | > 100 µM | > 100 µM | > 100 µM | > 100 µM | > 100 µM | > 100 µM | > 100 µM | > 100 µM | > 100 µM | > 100 µM | > 100 µM | > 100 µM | > 100 µM
